Test results published in patent publication US9173884B2, “Inhibitors of phosphodiesterase 11 (PDE11)” (TRUSTEES OF BOSTON COLLEGE, priority 2011, dated 2015).
pIC50: −log10 of the molar value. Each block holds one compound with its values, some of them ahead of it.

Key:
[1] = test system: chronic lymphocytic leukemia cells from a second leukemia patient; assay: Apoptosis of chronic lymphocytic leukemia cells, second patient (JM168); assay type: cell-based, human
Text: (§1) In collaboration with other researchers, the effect of different PDE inhibitors on chronic lymphocytic leukemia cells was investigated. The lymphocytic leukemia cells were obtained from individual patients and cannot be maintained in cell culture.

REC-1 cells = assay: Apoptosis of REC-1 B cell leukemia cell line; assay type: cell-based; details: for effect on apoptosis, in words: REC-1
normal T cells = assay: Apoptosis of normal T cells; assay type: cell-based; details: for cell viability of normal T cells: with or without rolipram
[2] = test system: chronic lymphocytic leukemia cells from a first leukemia patient; assay: Apoptosis of chronic lymphocytic leukemia cells, first patient; assay type: cell-based, human; set-up: % apoptosis: dose or concentration left out as unconfirmed; details: for effect on apoptosis, in words: first patient, high background apoptosis
Text: as §1

JVM-2 cells = assay: Apoptosis of JVM-2 B cell leukemia cell line; assay type: cell-based; details: for effect on apoptosis, in words: JVM-2
[3] = test system: chronic lymphocytic leukemia cells from a third leukemia patient; assay: Apoptosis of chronic lymphocytic leukemia cells, third patient (JM167); assay type: cell-based, human
Text: as §1

PDE10A1 [4] = target: T1, PDE10A1 (Homo sapiens (Human), UniProt Q9Y233); assay: biochemical
T1 sequence (Q9Y233 other isoform, or with tags, fused parts or gaps): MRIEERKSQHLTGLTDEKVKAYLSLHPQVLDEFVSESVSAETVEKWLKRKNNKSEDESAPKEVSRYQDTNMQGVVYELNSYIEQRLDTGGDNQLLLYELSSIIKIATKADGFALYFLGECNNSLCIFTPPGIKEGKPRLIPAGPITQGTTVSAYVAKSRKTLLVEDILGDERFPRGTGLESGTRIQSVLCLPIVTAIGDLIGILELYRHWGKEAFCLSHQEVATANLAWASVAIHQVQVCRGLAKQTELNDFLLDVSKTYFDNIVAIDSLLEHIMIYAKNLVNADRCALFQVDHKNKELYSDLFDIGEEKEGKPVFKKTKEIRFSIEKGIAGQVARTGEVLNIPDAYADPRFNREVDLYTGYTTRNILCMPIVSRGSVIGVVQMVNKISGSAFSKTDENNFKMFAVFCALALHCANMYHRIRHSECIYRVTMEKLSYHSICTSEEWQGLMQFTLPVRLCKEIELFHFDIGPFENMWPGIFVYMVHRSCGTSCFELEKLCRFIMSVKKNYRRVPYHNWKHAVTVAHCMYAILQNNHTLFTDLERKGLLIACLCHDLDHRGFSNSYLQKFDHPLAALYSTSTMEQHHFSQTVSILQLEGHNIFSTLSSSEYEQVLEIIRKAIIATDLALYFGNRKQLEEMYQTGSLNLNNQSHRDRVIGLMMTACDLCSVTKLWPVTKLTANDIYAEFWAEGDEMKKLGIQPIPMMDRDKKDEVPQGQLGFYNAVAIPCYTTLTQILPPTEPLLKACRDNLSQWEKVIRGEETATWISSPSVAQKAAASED

human PDE11A4 = human PDE11A4 (Homo sapiens (Human), UniProt Q9HCR9); assay: biochemical
Chain of human PDE11A4 (Q9HCR9 whole entry): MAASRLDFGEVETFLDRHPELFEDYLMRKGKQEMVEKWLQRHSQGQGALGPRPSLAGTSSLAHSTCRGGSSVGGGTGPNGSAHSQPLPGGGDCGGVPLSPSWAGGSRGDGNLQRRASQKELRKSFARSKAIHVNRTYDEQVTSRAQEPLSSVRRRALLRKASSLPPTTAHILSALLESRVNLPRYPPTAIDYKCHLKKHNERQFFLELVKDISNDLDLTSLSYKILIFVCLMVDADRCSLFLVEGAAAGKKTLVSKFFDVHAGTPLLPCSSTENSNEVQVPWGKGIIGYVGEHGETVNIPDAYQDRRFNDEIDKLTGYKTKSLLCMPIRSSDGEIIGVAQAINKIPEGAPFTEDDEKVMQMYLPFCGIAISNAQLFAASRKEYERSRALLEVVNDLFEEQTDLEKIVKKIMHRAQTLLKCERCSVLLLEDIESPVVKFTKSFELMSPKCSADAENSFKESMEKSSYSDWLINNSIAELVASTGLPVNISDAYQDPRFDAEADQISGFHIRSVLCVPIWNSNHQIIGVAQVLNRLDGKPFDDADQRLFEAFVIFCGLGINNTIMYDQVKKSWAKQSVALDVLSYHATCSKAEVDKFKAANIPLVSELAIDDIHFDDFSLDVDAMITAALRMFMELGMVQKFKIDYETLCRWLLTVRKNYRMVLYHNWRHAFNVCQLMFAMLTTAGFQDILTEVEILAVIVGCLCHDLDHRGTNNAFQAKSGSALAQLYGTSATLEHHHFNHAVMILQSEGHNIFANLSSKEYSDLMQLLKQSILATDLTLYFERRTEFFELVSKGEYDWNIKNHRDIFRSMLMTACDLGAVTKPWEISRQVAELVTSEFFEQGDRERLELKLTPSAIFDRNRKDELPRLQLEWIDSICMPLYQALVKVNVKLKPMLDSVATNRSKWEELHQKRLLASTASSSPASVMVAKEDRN

PDE5A1 = PDE5A1 (Homo sapiens (Human), UniProt O76074); assay: In vitro enzyme assay, PDE5; assay type: biochemical; details: PDE5A, 500 nM cGMP
PDE10A1 [5] = target: T1, PDE10A1; assay: In vitro enzyme assay, PDE10; details: read-out: IC50 PDE10; PDE10A, 30 nM cAMP
PDE6C = PDE6C (Homo sapiens (Human), UniProt P51160); assay: In vitro enzyme assay, PDE6; assay type: biochemical; details: […] cGMP
Chain of PDE6C (P51160 whole entry): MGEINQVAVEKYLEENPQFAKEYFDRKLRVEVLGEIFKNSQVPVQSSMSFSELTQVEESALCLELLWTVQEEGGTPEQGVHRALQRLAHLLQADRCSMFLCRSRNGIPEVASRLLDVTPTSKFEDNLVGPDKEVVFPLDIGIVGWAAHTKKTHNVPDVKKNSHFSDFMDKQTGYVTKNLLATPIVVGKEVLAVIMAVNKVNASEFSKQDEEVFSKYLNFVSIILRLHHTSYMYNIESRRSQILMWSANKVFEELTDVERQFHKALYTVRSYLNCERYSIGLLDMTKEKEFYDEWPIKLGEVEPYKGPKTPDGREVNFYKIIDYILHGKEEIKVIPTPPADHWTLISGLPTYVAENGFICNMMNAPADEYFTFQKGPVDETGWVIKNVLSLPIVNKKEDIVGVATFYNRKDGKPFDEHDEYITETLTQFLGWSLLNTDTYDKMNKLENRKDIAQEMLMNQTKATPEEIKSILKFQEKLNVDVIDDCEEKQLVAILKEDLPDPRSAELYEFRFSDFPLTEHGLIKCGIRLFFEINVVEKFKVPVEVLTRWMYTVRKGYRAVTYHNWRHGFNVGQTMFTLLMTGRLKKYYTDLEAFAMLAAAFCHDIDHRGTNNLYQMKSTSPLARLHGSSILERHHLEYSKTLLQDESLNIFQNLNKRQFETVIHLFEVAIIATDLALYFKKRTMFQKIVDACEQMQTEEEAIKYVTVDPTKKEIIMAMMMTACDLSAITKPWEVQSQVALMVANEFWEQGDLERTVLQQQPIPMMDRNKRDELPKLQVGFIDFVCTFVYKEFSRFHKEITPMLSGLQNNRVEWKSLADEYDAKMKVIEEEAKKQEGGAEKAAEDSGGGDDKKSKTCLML

PDE7A = PDE7A (Homo sapiens (Human), UniProt Q13946); assay: In vitro enzyme assay, PDE7; assay type: biochemical; details: 15 nM cAMP
Chain of PDE7A (Q13946 whole entry): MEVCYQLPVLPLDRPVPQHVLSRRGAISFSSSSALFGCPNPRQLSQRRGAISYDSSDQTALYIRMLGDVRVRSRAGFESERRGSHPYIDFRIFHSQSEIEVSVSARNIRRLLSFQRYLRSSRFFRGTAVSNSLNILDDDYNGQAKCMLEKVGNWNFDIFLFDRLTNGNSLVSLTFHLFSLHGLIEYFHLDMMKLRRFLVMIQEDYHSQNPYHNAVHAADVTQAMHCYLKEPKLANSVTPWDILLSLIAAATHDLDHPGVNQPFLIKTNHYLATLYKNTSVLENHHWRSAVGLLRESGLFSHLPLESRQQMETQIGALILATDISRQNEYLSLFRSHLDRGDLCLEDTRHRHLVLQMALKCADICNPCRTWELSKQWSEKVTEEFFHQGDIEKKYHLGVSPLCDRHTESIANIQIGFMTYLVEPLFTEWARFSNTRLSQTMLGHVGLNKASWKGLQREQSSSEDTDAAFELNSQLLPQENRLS

H295R cells [6] = assay: cAMP assay in H295R adrenocortical cells; assay type: cell-based, human; details: 20 μM, 2 h, absence or presence of 10 μM forskolin
Experimental: (§2) Human NCI-H295R cells were maintained as described (33). HeLa cells were maintained in DMEM with 10% FBS. 90% confluent cells in 12-well dishes were incubated in serum-starved media for 1 h, then in 0.5 ml serum-starved media with 20 µM compounds or 0.2% DMSO for 2 h in the absence or presence of 10 μM forskolin (Sigma Aldrich). Media was collected and cAMP levels were measured as described (33), using a cAMP ELISA kit (Enzo). cAMP levels were normalized to protein content measured using a BCA Protein Assay Kit (Pierce). Immunoblot analysis of protein lysates was performed as described (34), using phospho-CREB(9198), Akt(4685), or CREB(9197) primary antibodies (Cell Signaling Technology) and goat anti-rabbit IgG-HRP secondary antibody (sc-2030, Santa Cruz).

H295R cells [7] = assay: Cortisol assay in H295R cells; assay type: cell-based, human; details: 20 μM, 24 h, forskolin
Experimental: H295R cells were treated with compounds as described in the cAMP assays, for 24 h. Media was collected and cortisol content was quantified using a Cortisol EIA Kit (Oxford Biomedical Research). Cortisol levels were normalized to protein concentrations in cell extracts, as described above.

HeLa cells [8] = assay: cAMP assay in HeLa cells; assay type: cell-based; details: as for H295R cells (20 μM)
Experimental: as §2

HeLa cells [9] = assay: CREB phosphorylation immunoblot in HeLa cells; assay type: cell-based; details: as for H295R cells (20 μM)
Experimental: as §2

H295R cells [10] = assay: ATF-1 phosphorylation immunoblot in H295R cells; assay type: cell-based, human
Experimental: as §2

[11] = compound 20 μM plus Rolipram (20 μM)

SMILES: Cn1c(NC(=O)c2ccccc2NC(=O)c2ccccc2)nc2ccccc21 [BC11-4]
- % apoptosis ([1]; BC11-4 0.1 μM, Roli 0 μM): 6.65%
- % apoptosis ([1]; BC11-4 0.1 μM, Roli 0.2 μM): 10.4%
- % apoptosis ([1]; BC11-4 0.1 μM, Roli 2.0 μM): 21.2%
- % apoptosis ([1]; BC11-4 0.1 μM, Roli 20 μM): 28.8%
- % apoptosis ([1]; BC11-4 1.0 μM, Roli 0 μM): 4.71%
- % apoptosis ([1]; BC11-4 1.0 μM, Roli 0.2 μM): 10.8%
- % apoptosis ([1]; BC11-4 1.0 μM, Roli 2.0 μM): 20.8%
- % apoptosis ([1]; BC11-4 1.0 μM, Roli 20 μM): 29.6%
- % apoptosis ([1]; BC11-4 10.0 μM, Roli 0 μM): 5.78%
- % apoptosis ([1]; BC11-4 10.0 μM, Roli 0.2 μM): 4.93%
- % apoptosis ([1]; BC11-4 10.0 μM, Roli 2.0 μM): 6.72%
- % apoptosis ([1]; BC11-4 10.0 μM, Roli 20 μM): 15.8%
- response of cells (apoptosis), in words ([1]; second patient): did not respond
- Apoptosis (%) REC-1 Cells (B cell leukemia) (REC-1 cells; 40 μM): 100%
- effect on apoptosis, in words (REC-1 cells): increased apoptosis
- % apoptosis of normal T cells (normal T cells; compound 20 μM alone (DMSO)): 14.3%
- % apoptosis of normal T cells (normal T cells; [11]): 13.9%
- cell viability of normal T cells (normal T cells): did not affect cell viability
- % apoptosis ([2]; compound): 66.9%
- % apoptosis ([2]; compound alone (DMSO)): 70.1%
- effect on apoptosis, in words [2]: increase in apoptosis
- Apoptosis (%) JVM-2 Cells (B cell leukemia) (JVM-2 cells; 40 μM): 32.3%
- effect on apoptosis, in words (JVM-2 cells): increased apoptosis

- pIC50 (PDE10A1 [4]): 6.70
- pIC50 (human PDE11A4): 7.30
SMILES: C=CCSc1nnc2n(-c3ccccc3)c(=O)c3c(C)c(C)sc3n12 [BC11-8]
- % apoptosis ([3]; BC11-8 0.1 μM, Roli 0 μM): 6.31%
- % apoptosis ([3]; BC11-8 0.1 μM, Roli 0.2 μM): 11.7%
- % apoptosis ([3]; BC11-8 0.1 μM, Roli 2.0 μM): 22.7%
- % apoptosis ([3]; BC11-8 0.1 μM, Roli 20 μM): 28.2%
- % apoptosis ([3]; BC11-8 1.0 μM, Roli 0 μM): 7.63%
- % apoptosis ([3]; BC11-8 1.0 μM, Roli 0.2 μM): 13.1%
- % apoptosis ([3]; BC11-8 1.0 μM, Roli 2.0 μM): 19.5%
- % apoptosis ([3]; BC11-8 1.0 μM, Roli 20 μM): 26.7%
- % apoptosis ([3]; BC11-8 10.0 μM, Roli 0 μM): 21.8%
- % apoptosis ([3]; BC11-8 10.0 μM, Roli 0.2 μM): 28.5%
- % apoptosis ([3]; BC11-8 10.0 μM, Roli 2.0 μM): 40.1%
- % apoptosis ([3]; BC11-8 10.0 μM, Roli 20 μM): 41.5%
- effect on apoptosis, in words ([3]; third patient, additive with rolipram): increased apoptosis
- Apoptosis (%) REC-1 Cells (B cell leukemia) (REC-1 cells; 40 μM): 66.2%
- effect on apoptosis, in words (REC-1 cells): increased apoptosis
- % apoptosis of normal T cells (normal T cells; compound 20 μM alone (DMSO)): 10.3%
- % apoptosis of normal T cells (normal T cells; [11]): 14.7%
- cell viability of normal T cells (normal T cells): did not affect cell viability
- % apoptosis ([2]; compound): 63.3%
- % apoptosis ([2]; compound alone (DMSO)): 60.1%
- effect on apoptosis, in words [2]: increase in apoptosis
- Apoptosis (%) JVM-2 Cells (B cell leukemia) (JVM-2 cells; 40 μM): 28.8%
- effect on apoptosis, in words (JVM-2 cells): increased apoptosis

- pIC50 (PDE5A1): 4.37
- pIC50 (PDE10A1 [5]): 4.46
- pIC50 (PDE6C): 4.60
- pIC50 (PDE7A): 4.37
SMILES: CCN(CC)C(=O)c1cc(-c2cccs2)nc2c1c(C)nn2-c1ccccc1C [BC11-15]

SMILES: O=c1nc2sc3ccccc3n2c(=O)n1-c1ccccc1 [BC11-19]
- cAMP levels in H295R cells (H295R cells [6]): consistently elevates
- cortisol production by H295R cells (H295R cells [7]): consistently elevates

SMILES: CCCSc1nc2c(c(=O)n1-c1ccccc1)SCC2 [BC11-38]
- cAMP levels in H295R cells (H295R cells [6]): significantly increased
- cAMP levels in HeLa cells (HeLa cells [8]): do not increase
- CREB phosphorylation in HeLa cells (HeLa cells [9]): do not increase
- phosphorylation of ATF1 (H295R cells [10]): PDE11A-specific increase
- cortisol production by H295R cells (H295R cells [7]): significantly increased

SMILES: COc1ccc(C2CNC(=O)C2)cc1OC1CCCC1 (stereo not drawn) [Rolipram, rolipram, reference compound]
- % apoptosis ([3]; Roli 0.2 μM, BC11-8 0 μM): 13.2%
- % apoptosis ([3]; Roli 2.0 μM, BC11-8 0 μM): 23.5%
- % apoptosis ([3]; Roli 20 μM, BC11-8 0 μM): 29.9%
- % apoptosis ([1]; Roli 0.2 μM, BC11-4 0 μM): 12.7%
- % apoptosis ([1]; Roli 2.0 μM, BC11-4 0 μM): 24.9%
- % apoptosis ([1]; Roli 20 μM, BC11-4 0 μM): 33.8%
- Apoptosis (%) REC-1 Cells (B cell leukemia) (REC-1 cells; 20 μM): 56.7%
- effect on apoptosis, in words (REC-1 cells): not affected
- % apoptosis of normal T cells (normal T cells; compound 20 μM alone (DMSO)): 9.4%
- % apoptosis ([2]; compound alone (DMSO)): 46.7%
- effect on apoptosis, in words [2]: not affected
- Apoptosis (%) JVM-2 Cells (B cell leukemia) (JVM-2 cells; 20 μM): 18.5%
- effect on apoptosis, in words (JVM-2 cells): not affected
